Patent publication US20200164026A1, “Intranasal Delivery of Cell Permeant Therapeutics” (The Trustees of Columbia University in the City of New York, priority 2010, published 2020)

Experiments:
[1] = test system: hippocampal neuronal cultures; test: Neuronal survival assay, 4-hydroxynonenal (HNE) mediated death; assay type: cell-based, rat; details: HNE 3 μM, Pen1-XBIR3 80 nM, 1 day
Description: (Davidson, et al., J Neurosci 24 (45), 10040-10046 (2004)). Upon entry into the cell the disulfide linkage is broken by the reducing environment of the cytoplasm, releasing the peptide cargo and allowing it to act at its target. Functional efficacy of this construct was confirmed using hippocampal neuronal cultures that were subjected to 4-hydroxynonenal (HNE) mediated death, a caspase-9 dependent death. (Rabacchi, et al., Neurobiol Aging 25 (8), 1057-1066 (2004)). […] To ensure that a Pen1-peptide could be delivered to the brain, Pen1 was linked to a FITC-labeled control peptide and delivered to the striatum using convection enhanced delivery (CED). Brains were harvested 24 hr after delivery, sectioned, and imaged. […] Pent-XBIR3 was delivered to the striatum 1 hr prior to tMCAo using ICC. Animals were harvested at 24 hpr and immunostained for caspase-9 and c1-C6. […] Thus, caspase-9 activity was necessary for activation of caspase-6 in neuron soma and processes following a transient ischemic event in rats.
Rat Hippocampal cultures. […]
Neuronal survival assay. […] After 1 day of treatment cells number was quantified as previously described. […] Briefly, the cells were lysed in counting buffer and intact nuclei were counted using a hemocytometer. […]

[2] = test system: cleaved caspase-6 (c1-C6) and caspase-9; test: Pen1-XBIR3 delivered to the striatum (CED/ICC) prior to tMCAo; immunostaining for c1-C6 and caspase-9; assay type: in vivo, rat; details: delivered to striatum 1 hr prior to tMCAo, 24 hpr
Description: (Davidson, et al., J Neurosci 24 (45), 10040-10046 (2004)). Upon entry into the cell the disulfide linkage is broken by the reducing environment of the cytoplasm, releasing the peptide cargo and allowing it to act at its target. Functional efficacy of this construct was confirmed using hippocampal neuronal cultures that were subjected to 4-hydroxynonenal (HNE) mediated death, a caspase-9 dependent death. (Rabacchi, et al., Neurobiol Aging 25 (8), 1057-1066 (2004)). […] To ensure that a Pen1-peptide could be delivered to the brain, Pen1 was linked to a FITC-labeled control peptide and delivered to the striatum using convection enhanced delivery (CED). Brains were harvested 24 hr after delivery, sectioned, and imaged. […] Pent-XBIR3 was delivered to the striatum 1 hr prior to tMCAo using ICC. Animals were harvested at 24 hpr and immunostained for caspase-9 and c1-C6. […]
Pen1-XBIR3. […] Linkage was assessed by 20% SDS-PAGE and western blotting with anti-His antibody. […]
Immunohistochemistry (IHC), Cell Process Quantification, and Statistical Analysis. […] Quantification of neurons and axons was accomplished using the Cell Counter plug-in for ImageJ (NIH). For quantification in the rat brain, 20x magnification images were acquired from the dorsal motor cortex and the […] somatosensory cortex forelimb region; both regions are contained are within the infarct penumbra (FIG. 1A). […]

With “Pen1-XBIR3: BIR3 domain from XIAP, a specific caspase-9 inhibitor, disulfide-linked to Penetratin1 cell transduction peptide (SEQ ID NO: 10)” the “neuronal death / survival” value [1] was “abrogated death”, the “caspase-9 and c1-C6 immunostaining in neuronal soma and processes” value [2] was “blocks the increase in caspase-9 and the induction of c1-C6” and the “caspase-9 and c1-C6 immunostaining in neuronal soma and processes” value ([2]; listed as Pent-XBIR3) was “inhibited appearance of c1-C6 and caspase-9”.
